The numbers were not newly measured in US20260014182A1, “METHOD OF TREATING CANCER” (M.T.3, Inc., priority 2019, published 2026), which cites them from elsewhere.

SMILES strings stand for the structures.

This data set concerns angiogenesis. The settings on record: in-vitro test, used with radiation.
Regarding `CCCCCCCCCC(=O)OCCCO[C@H]1O[C@H](CS(=O)(=O)[O-])[C@@H](O)[C@H](O)[C@H]1O.[Na+]` [αSQAP C10:0], the angiogenesis result is “inhibited”. With `CCCCCCCCCCCCCC(=O)OCCCO[C@H]1O[C@H](CS(=O)(=O)[O-])[C@@H](O)[C@H](O)[C@H]1O.[Na+]` [αSQAP C14:0], the angiogenesis result was “inhibited”. On to `CCCCCCCCCCCCCCCCCCCCCC(=O)OCCCO[C@H]1O[C@H](CS(=O)(=O)[O-])[C@@H](O)[C@H](O)[C@H]1O.[Na+]` [αSQAP C22:0], for which the angiogenesis result is “inhibited”. In the case of `CCCCCCCCCCCCCCCCCC(=O)OCCCO[C@@H]1O[C@H](CS(=O)(=O)[O-])[C@@H](O)[C@H](O)[C@H]1O.[Na+]` [βSQAP C18:0], the angiogenesis result is on record as “inhibited”.
